Data taken from paper PMC10339131, “Characterization of two bacterial multi-flavinylated proteins harboring multiple covalent flavin cofactors” (BBA Advances, 2023).

Key:
CbFMN4-D1 = biological target: T1, CbFMN4-D1 (Clostridiaceae bacterium, UniProt Z9KOB2RJF1); assay: X-ray crystal structure, […] A; assay type: binding; conditions: covalent; bound via Thr67 (domain numbering); attached by co-expressed ApbE
T1 construct: expressed in E. coli BL21-AI with ApbE and CaFADS; SUMO cleaved; two molecules per asymmetric unit from crystal packing
T1 sequence (Z9KOB2RJF1 1-85): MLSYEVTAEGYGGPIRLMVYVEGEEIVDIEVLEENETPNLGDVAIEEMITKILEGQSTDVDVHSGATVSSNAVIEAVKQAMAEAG

SaFMN3 = biological target: T2, SaFMN3 (Streptomyces azureus, UniProt A0A0K8PVQ4); assay: ESI-MS of intact protein; TCA precipitation; UV-visible spectrum; assay type: binding; conditions: covalent; three FMN sites, threonyl phosphoester; attached by co-expressed ApbE
T2 construct: gene SAZU_6878; N-terminal residues 1-48 (signal/membrane anchor) removed; His6-SUMO fusion, cleaved; E. coli BL21-AI with ApbE and CaFADS; mainly monomer; three FMN domains
T2 sequence (A0A0K8PVQ4 49-352): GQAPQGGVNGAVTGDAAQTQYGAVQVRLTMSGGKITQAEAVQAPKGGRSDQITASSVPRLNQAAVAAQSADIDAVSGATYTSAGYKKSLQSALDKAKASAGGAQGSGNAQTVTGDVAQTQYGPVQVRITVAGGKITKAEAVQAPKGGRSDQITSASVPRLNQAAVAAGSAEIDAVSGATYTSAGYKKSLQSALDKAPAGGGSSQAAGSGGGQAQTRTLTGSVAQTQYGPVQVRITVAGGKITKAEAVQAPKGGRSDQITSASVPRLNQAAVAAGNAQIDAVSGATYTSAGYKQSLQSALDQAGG

## Cc1cc2nc3c(=O)[nH]c(=O)nc-3n(C[C@H](O)[C@H](O)[C@H](O)COP(=O)(O)O)c2cc1C [FMN]
CbFMN4-D1
  X-ray crystal structure, 2.60 A: Both CbFMN4-D1 molecules have a covalently bound FMN via Thr67.
SaFMN3
  ESI-MS of intact protein; TCA precipitation; UV-visible spectrum: exactly corresponds to the predicted mass of fully flavinylated SaFMN3
